Results taken from patent US20260216074A1, “USE OF PACLITAXEL CATIONIC LIPOSOME IN TREATING TUMORS” (CSPC ZHONGQI PHARMACEUTICAL TECHNOLOGY (SHIJIAZHUANG) CO., …, priority 2023, published 2026).
Marks after values point to notes of the source that are not given here.

Assays:
[1] = system: human triple-negative breast cancer MDA-MB-231 xenografts; assay: Inhibitory effect on human triple-negative breast cancer MDA-MB-231 xenografts in mice; format: in vivo, human cells in female NOD/SCID mice; conditions: dose 400 mg/kg po
Experimental: Experimental animal: female NOD/SCID mice provided by Beijing Vital River Laboratory Animal Technology Co., Ltd.
Experimental method: Female NOD/SCID mice were subcutaneously inoculated with human triple-negative breast cancer MDA-MB-231 cells. 7 days after inoculation, the mice were divided into 7 groups when the mean tumor volume was 120 to 130 mm^3 (d0), namely, the vehicle control group (5% glucose injection), the 6 mg/kg of A1 group, the 3 mg/kg or 6 mg/kg of A1+400 mg/kg of capecitabine for injection (CAP) group, the 6 mg/kg of paclitaxel injection (Taxol) group, the 6 mg/kg of Taxol+400 mg/kg of CAP group, and the 400 mg/kg of CAP group, respectively. The CAP for injection was administered intragastrically twice a week and the other drugs were administered intravenously twice a week for a total of 7 times (d0, d3, d7, d10, d14, d17, and d21). The experiment was terminated at d28. During the experiment, the body weight and tumor volume of animals were monitored twice a week, and the tumor volume (TV) was calculated. At the end of the experiment, the tumor weight was weighed and the tumor weight inhibition rate was calculated.
Methods for drug preparation: CAP was prepared by diluting with water for injection to the desired concentration, and the rest of drugs were prepared according to the method described in Example 3.

[2] = system: prostate cancer RM-1 allografts; assay: Inhibitory effect of combination with DDP on prostate cancer RM-1 allografts in mice; format: in vivo, mouse RM-1 cells in female C57/BL6 mice
Experimental: Experimental animal: female C57/BL6 mice provided by Beijing Vital River Laboratory Animal Technology Co., Ltd.
Experimental method: Female C57/BL6 mice were subcutaneously inoculated with mouse prostate RM-1 cells. Six days after inoculation, the mice were grouped when the mean tumor volume was about 140 mm^3 (d0). Drugs were administered intravenously (except that DDP was administered intraperitoneally) at d0, d2, d4, d6, d8, and d10 for a total of 6 times. The experiment was terminated at d15. In the A1 high-dose group, A1 was administered at a dose of 12 mg/kg for the first three times and 6 mg/kg for the last three times, with a cumulative dose of 54 mg/kg; in the A1 low-dose group, A1 was administered at a dose of 6 mg/kg for six times, with a cumulative dose of 36 mg/kg; in the DPP group, DPP was administered at a dose of 1 mg/kg for six times, with a cumulative dose of 6 mg/kg; in the vehicle control group, 5% glucose injection (at an equal volume to A1 high-dose group) was administered; in the A1+DDP-1 group, A1 was administered at a dose of 6 mg/kg for six times, with a cumulative dose of 36 mg/kg, and DPP was administered at a dose of 1 mg/kg for six times, with a cumulative dose of 6 mg/kg; in the A1+DDP-2 group, A1 was administered at a dose of 12 mg/kg for the first three times and 6 mg/kg for the last three times with a cumulative dose of 54 mg/kg, and DPP was administered at a dose of 1 mg/kg for six times, with a cumulative dose of 6 mg/kg. During the experiment, the body weight and tumor volume of animals were monitored three times a week, and the values of the tumor volume (TV), relative tumor volume (RTV), and relative tumor proliferation rate (T/C) were calculated.
Methods for drug preparation: A1: the paclitaxel cationic liposome was dissolved by adding water for injection, and then diluted with glucose and sodium chloride injection to the desired concentration; DDP: the DDP powder was dissolved in 5% glucose injection and subjected to ultrasound to formulate the desired concentration.

[3] = system: human pancreatic cancer CFPAC-1 xenografts; assay: Inhibitory effect on human pancreatic cancer CFPAC-1 xenografts in mice; format: in vivo, human cells in female Nu/Nu nude mice
Experimental: Experimental animal: female Nu/Nu nude mice provided by Beijing Vital River Laboratory Animal Technology Co., Ltd.
Experimental method: Female Nu/Nu nude mice were subcutaneously inoculated with human pancreatic cancer CFPAC-1 cells. 5 days after inoculation, the mice were divided into 7 groups when the mean tumor volume was 228 mm^3 (d0), namely, the vehicle control group (5% glucose injection), the 6 mg/kg of A1 group, the 3 mg/kg or 6 mg/kg of A1+20 mg/kg of gemcitabine for injection (GEM) group, the 6 mg/kg of paclitaxel injection (Taxol) group, the 6 mg/kg of Taxol+20 mg/kg of GEM group, and the 20 mg/kg of GEM group, respectively. There were 10 mice in each group. Drugs were administered intravenously (except that the GEM was administered intraperitoneally for 5 times (at the first five time points)) at d0, d3, d6, d9, d13, and d16 for a total of 6 times. After the last administration, the mice were further observed for 11 d (i.e. d27) and the experiment was terminated. During the experiment, the body weight and tumor volume of animals were monitored twice a week, and the tumor volume (TV) was calculated. At the end of the experiment, the tumor weight was weighed and the tumor weight inhibition rate was calculated.
Methods for drug preparation: A1 was prepared using the same method as in Example 2. The gemcitabine for injection was dissolved in saline to achieve the desired concentration. Paclitaxel injection (Taxol) was diluted with saline to the desired concentration.

In the case of `CCCCCOC(=O)Nc1nc(=O)n([C@@H]2O[C@H](C)[C@@H](O)[C@H]2O)cc1F` [CAP, capecitabine], the “Tumor Volume d20” value ([1]; 7 times, x ± sd, n = 10) was 1708.3 ± 564.8** mm^3, the “Tumor Volume d0” value ([1]; d0 at grouping, before dosing, x ± sd, n = 10) was 124.5 ± 19.4 mm^3 and the “Tumor Weight Inhibition Rate” value ([1]; end of experiment (d28)) was 33.4%. For the same compound, the “Tumor Weight” value ([1]; end of experiment (d28), x ± sd, n = 10) was 1.3679 ± 0.2649 g.
`N.N.[Cl][Pt][Cl]` [DDP, Cisplatin] was tested, and the “Tumor Volume d15” value ([2]; cumulative dose 6 mg/kg (1 mg/kg x6) i.p., d0-d10, x ± sd, n = 9) was 3494.6 ± 710.9 mm^3, the “Tumor Volume d0” value ([2]; cumulative dose 6 mg/kg (1 mg/kg x6) i.p., d0 at grouping, before dosing, x ± sd, n = 9) was 145.1 ± 22.8 mm^3 and the T/C ([2]; cumulative dose 6 mg/kg i.p., d15) was 77.1%. The RTV ([2]; cumulative dose 6 mg/kg i.p., d15, x ± sd, n = 9) was 24.9 ± 7.6.
For `Nc1ccn([C@@H]2O[C@H](CO)[C@@H](O)C2(F)F)c(=O)n1` [GME, gemcitabine], the “Tumor Volume d27” value ([3]; dose 20 mg/kg ip x5, x ± sd, n = 10) was 720.9 ± 152.8** mm^3, the “Tumor Volume d0” value ([3]; dose 20 mg/kg ip, d0 at grouping, before dosing, x ± sd, n = 10) was 227.3 ± 52.8 mm^3 and the “Tumor Weight Inhibition Rate” value ([3]; dose 20 mg/kg ip, end of experiment (d27)) was 48.4%. The “Tumor Weight” value ([3]; dose 20 mg/kg ip, end of experiment (d27), x ± sd, n = 10) was 0.8238 ± 0.3253 g.
